Test results published in patent publication US6875761B2 (Eisai Co., Ltd., priority 1997, dated 2005).
Structures can show the parent of a compound that is named as a salt.

| SMILES | melting point |
| --- | --- |
| CCN1CCN(c2nc(-c3ccc(S(=O)(=O)CC)nc3)cc3ccccc23)CC1 (as salt: hydrochloride) [Example 130, 3-[(2-Ethylsulfonylpyridin)-5-yl]-1-(4-Ethylpiperazin-1-yl)Isoquinoline Hydrochloride] | 155 to 159 °C |
| CCN1CCN(c2nc(-c3ccc(N4CCOCC4)nc3)cc3ccccc23)CC1 (as salt: hydrochloride) [Example 147, 1-(4-ethylpiperazin-1-yl)-3-[2-(morpholin-4-yl)pyridin-5-yl]isoquinoline trihydrochloride] | 186 °C |
| CCN1CCN(c2nc(-c3ccc(N4C[C@@H](C)O[C@@H](C)C4)nc3)cc3ccccc23)CC1 (as salt: hydrochloride) [Example 149, 3-[2-(2,6-dimethylmorpholin-4-yl)pyridin-5-yl]-1-(4-ethylpiperazin-1-yl)isoquinoline trihydrochloride] | 180 °C |
| CCN1CCN(c2nc(-c3ccc(N4CCSCC4)nc3)cc3ccccc23)CC1 (as salt: hydrochloride) [Example 150, 1-(4-ethylpiperazin-1-yl)-3-[2-(thiomorpholin-4-yl)pyridin-5-yl]isoquinoline trihydrochloride] | 210 °C |
| CCN1CCN(c2nc(-c3ccc(N4CC[S+]([O-])CC4)nc3)cc3ccccc23)CC1 (as salt: hydrochloride) [Example 151, 1-(4-ethylpiperazin-1-yl)-3-[2-(S-oxythiomorpholin-4-yl)pyridin-5-yl]isoquinoline trihydrochloride] | 170 °C |
| CCN1CCN(c2nc(-c3ccc(N4CCC(OC)CC4)nc3)cc3ccccc23)CC1 (as salt: hydrochloride) [Example 153, 1-(4-ethylpiperazin-1-yl)-3-[2-(4-methoxypiperidin-1-yl)pyridin-5-yl]isoquinoline trihydrochloride] | 170 °C |
| CCN1CCN(c2nc(-c3ccc(N4CCC(CO)CC4)nc3)cc3ccccc23)CC1 (as salt: hydrochloride) [Example 154, 1-(4-ethylpiperazin-1-yl)-3-[2-(4-hydroxymethylpiperidin-1-yl)pyridin-5-yl]isoquinoline trihydrochloride] | 188 °C |
| CCN1CCN(c2nc(-c3ccc(N4CCOCC4)cc3)cc3ccccc23)CC1 (as salt: hydrochloride) [Example 160, 3-[4-(4-morpholinyl)phenyl]-1-(4-ethylpiperazin-1-yl)isoquinoline dihydrochloride] | 242 to 245 °C (dec.) |
| CCN1CCN(c2nc(-c3csc(CO)c3)cc3ccccc23)CC1 (as salt: hydrochloride) [Example 161, 1-(1-ethylpiperazin-4-yl)-3-(2-hydroxymethylthiophen-4-yl)isoquinoline dihydrochloride] | 170 °C |
| CCN1CCN(c2nc(-c3cnc(N4CCOCC4)s3)cc3ccccc23)CC1 (as salt: hydrochloride) [Example 173, 1-(1-ethylpiperazin-4-yl)-3-[2-(4-morpholinyl)-5-thiazolyl]isoquinoline dihydrochloride] | 265 °C (dec.) |
| CCCC(=O)Nc1ncc(-c2cc3ccccc3c(N3CCN(CC)CC3)n2)cn1 (as salt: hydrochloride) [Example 174, 3-(2-Propylcarbonylaminopyrimidin-5-Yl)-1-(4-Ethylpiperazin-1-Yl)Isoquinoline Hydrochlroide] | 216 to 219 °C |
| CCN1CCN(c2nc(-c3ccc(C4=CCOCC4)s3)cc3ccccc23)CC1 (as salt: hydrochloride) [Example 176, 3-[2-(5,6-Dihydro-2H-Pyran-4-Yl)Thiophen-5-Yl]-1-[4-Ethylpiperazin-1-Yl)Isoquinoline Hydrochloride] | 256 to 258 °C |
| CCN1CCN(c2nc(C#Cc3ccccc3)cc3ccccc23)CC1 (as salt: hydrochloride) [Example 177, 1-(1-Ethylpiperazin-4-Yl)-3-(Phenylethynyl)Isoquinoline Dihydrochloride] | 133 to 136 °C |
| CCN1CCN(c2nc(C#Cc3ccc(OC)cc3)cc3ccccc23)CC1 (as salt: hydrochloride) [Example 178, 1-(1-Ethylpiperazin-4-Yl)-3-(4-Methoxyphenyl)Ethynylisoquinoline Dihydrochloride] | 230 °C (dec.) |
| CCN1CCN(c2nc(C#CCCc3ccccc3)cc3ccccc23)CC1 (as salt: hydrochloride) [Example 182, 1-(1-Ethylpiperazin-4-Yl)-3-[4-Phenyl-1-Butynyl)Isoquinoline Dihydrochloride] | 120 to 128 °C |
| CCN1CCN(c2nc(C#Cc3ccc(OCCO)cc3)cc3ccccc23)CC1 (as salt: hydrochloride) [Example 183, 1-(1-Ethylpiperazin-4-Yl]-3-[4-(2-Hydroxyethoxy)Phenylethynyl]Isoquinoline Dihydrochloride] | 205 to 208 °C |
| CCN1CCN(c2nc(C#Cc3cncc(CCCOC)c3)cc3ccccc23)CC1 (as salt: hydrochloride) [Example 186, 1-(1-Ethylpiperazin-4-Yl)-3-[3-(3-Methoxypropyl)-5-Pyridyl]Ethynylisoquinoline] | 135 to 140 °C |

| SMILES | melting point |
| --- | --- |
| CCN1CCN(c2nc(C#Cc3ncccc3OCCO)cc3ccccc23)CC1 (as salt: hydrochloride) [Example 188, 1-(1-Ethylpiperazin-4-Yl)-3-[3-(2-Hydroxyethoxy)-2-Pyridyl]Ethynylisoquinoline] | 153 to 159 °C |
| CCN1CCN(c2nc(/C=C/c3ccccc3)cc3ccccc23)CC1 (as salt: hydrochloride) [Example 189, 1-(1-Ethylpiperazin-4-Yl)-3-(Trans-2-Phenylethenyl)Isoquinoline Dihydrochloride] | 222 to 225 °C |
| CCN1CCN(c2nc(/C=C/c3ccc(OC)cc3)cc3ccccc23)CC1 (as salt: hydrochloride) [Example 190, 1-(1-Ethylpiperazin-4-Yl)-3-[Trans-2-(4-Methoxyphenyl)Ethenyl]Isoquinoline Dihydrochloride] | 227 °C (dec.) |
| CCN1CCN(c2nc(/C=C/c3ccc(S(C)(=O)=O)cc3)cc3ccccc23)CC1 (as salt: hydrochloride) [Example 201, 3-[(E)-2-(4-Methylsulfonylphenyl)Ethenyl]-1-(4-Ethylpiperazin-1-Yl)Isoquinoline Hydrochloride] | 170 to 174 °C |
| CCN1CCN(c2nc(/C=C/c3ccccn3)cc3ccccc23)CC1 (as salt: hydrochloride) [Example 209, 1-(1-Ethylpiperazin-4-Yl)-3-[Trans-2-(2-Pyridyl)Ethenyl]Isoquinoline Trihydrochloride] | 220 °C (dec.) |
| CCN1CCN(c2nc(C(=O)Nc3ccccc3)cc3ccccc23)CC1 (as salt: hydrochloride) [Example 218, 1-(ethylpiperazin-4-yl)-N-phenyl-3-isoquinolinecarboxamide dihydrochloride] | 260 °C (dec.) |
| CCN1CCN(c2nc(-c3ccc(OC)cc3)c(OC)c3ccccc23)CC1 (as salt: hydrochloride) [Example 221, 1-(1-ethylpiperazin-4-yl)-4-methoxy-3-(4-methoxyphenyl)isoquinoline dihydrochloride] | 227 to 235 °C |
| CCN1CCN(c2nc(-c3ccc(OCCO)cc3)cc3cc(F)ccc23)CC1 (as salt: hydrochloride) [Example 223, 1-(4-ethylpiperazin-1-yl)-3-[4-(2-hydroxyethoxy)phenyl]-6-fluoroisoquinoline dihydrochloride] | 152 to 170 °C |
| CCN1CCN(c2nc(-c3ccc(OC)cc3)cc3ccc(F)cc23)CC1 (as salt: hydrochloride) [Example 229, 1-(4-ethylpiperazin-1-yl)-7-fluoro-3-(4-methoxyphenyl)isoquinoline dihydrochloride] | 220 to 225 °C |
| CCN1CCN(c2nc(-c3ccc(OC)cc3)cc3cccc(F)c23)CC1 (as salt: hydrochloride) [Example 233, 1-(1-ethylpiperazin-4-yl)-8-fluoro-3-(4-methoxyphenyl)isoquinoline dihydrochloride] | 222 to 227 °C |
| CCN1CCN(c2nc(-c3ccc(OCCO)cc3)cc3cccc(F)c23)CC1 (as salt: hydrochloride) [Example 234, 1-(1-ethylpiperazin-4-yl)-8-fluoro-3-[4-(2-hydroxyethoxy)phenyl]isoquinoline dihydrochloride] | 215 to 219 °C |
| COc1ccc(-c2cc3ccccc3c(N3CCN(C4CC4)CC3)n2)cc1 (as salt: hydrochloride) [Example 239, 1-(1-cyclopropylpiperaziin-4-yl)-3-(4-methoxyphenyl)isoquinoline dihydrochloride] | 138 to 143 °C |
| C=CCN1CCN(c2nc(-c3ccc(OC)cc3)cc3ccccc23)CC1 (as salt: hydrochloride) [Example 240, 1-(1-allylpiperazin-4-yl)-3-(4-methoxyphenyl)isoquinoline dihydrochloride] | 111 to 116 °C |
| COc1ccc(-c2cc3ccccc3c(N3CCN(CCO)CC3)n2)cc1 (as salt: hydrochloride) [Example 242, 1-[4-(2-hydroxyethyl)piperazin-1-yl]-3-(4-methoxyphenyl)isoquinoline Dihydrochloride] | 163 to 165 °C |
| CCS(=O)(=O)NCc1ccc(-c2cc3ccccc3c(N3CCN(CCO)CC3)n2)cc1 (as salt: hydrochloride) [Example 243, 3-(4-ethylsulfonylaminomethylphenyl)-1-[4-(2-hydroxyethyl)piperazin-1-yl]isoquinoline Hydrochloride] | 171 to 174 °C |
| CCN1CCN(c2nc(-c3ccc(OCCO)cc3)cc3cccnc23)CC1 (as salt: hydrochloride) [Example 245, 8-(1-ethylpiperazin-4-yl)-6-[4-(2-hydroxyethoxy)phenyl]-1,7-naphthyridine Dihydrochloride] | 137 to 143 °C |
| CCN1CCN(c2nc(-c3ccc(CCCO)cc3)cc3cccnc23)CC1 (as salt: hydrochloride) [Example 247, 8-(1-ethylpiperazin-4-yl)-6-[4-(3-hydroxypropyl)phenyl]-1,7-naphthyridine Dihydrochloride] | 119 to 122 °C |
